“And” between values parts separate entries of the source, which are not always exact repeats. Equal entries are not always repeated. Where two headings read alike, the source gives them in different places.
Legend:
[1] = tested on: O=C(Cc1cccs1)N[C@@H]1C(=O)N2C(C(=O)O)=C(/C=C/c3ccc([N+](=O)[O-])cc3[N+](=O)[O-])CS[C@H]12; test: purified protein, by the assay type
[2] = molecular target: T1, SHV-12 (Klebsiella pneumoniae, UniProt P0AD64, E235K/G234S/L31Q); assay type: biochemical
[3] = molecular target: T2, TEM-43 (Escherichia coli, UniProt P62593, E102K/M180T/R162H, species not given); assay type: biochemical; settings: hydrolysis by TEM-43
[4] = molecular target: T3, KPC-2 (Klebsiella pneumoniae, UniProt Q9F663); assay type: biochemical
[5] = molecular target: T4, KPC-3 (Klebsiella pneumoniae, UniProt Q9F663, H272Y); assay type: biochemical; settings: hydrolysis by KPC-3
[6] = molecular target: T5, BKC-1 (Klebsiella pneumoniae, UniProt A0A0F6QEY8); test: Km and kcat of nitrocefin or imipenem hydrolysis; assay type: biochemical; settings: hydrolysis by BKC-1
[7] = molecular target: T6, FRI-1 (Enterobacter cloacae, UniProt A0A0M5L4T8); test: Km and kcat of nitrocefin or imipenem hydrolysis; assay type: biochemical; settings: hydrolysis by FRI-1
[8] = molecular target: T7, SME-2 (Serratia marcescens, UniProt P52682, V207Q); assay type: biochemical
[9] = molecular target: T8, NDM-1 (Klebsiella pneumoniae, UniProt C7C422); assay type: biochemical
[10] = molecular target: IMP-26 (Pseudomonas aeruginosa, UniProt D0V558); assay type: biochemical; settings: hydrolysis by IMP-26
[11] = molecular target: TEM-10 (Escherichia coli, UniProt P62593, E237K/R162S); settings: hydrolysis by TEM-10
[12] = molecular target: T3, KPC-2; test: IC50 of beta-lactamase inhibition (nitrocefin hydrolysis); assay type: biochemical; settings: KPC-2, class A; substrate nitrocefin; 10 min preincubation at 37°C; read-out: IC50 (nM) of drug
[13] = molecular target: CTX-M-14 (Escherichia coli, UniProt Q9L5C7); test: as above; assay type: biochemical; settings: read-out: IC50 (nM) of drug
[14] = molecular target: T1, SHV-12; test: as above; assay type: biochemical; settings: read-out: IC50 (nM) of drug
[15] = molecular target: T9, CTX-M-15 (Escherichia coli, UniProt Q9EXV5); test: as above; assay type: biochemical; settings: read-out: IC50 (nM) of drug
Procedure: (§1) […]; Initial rates of reaction were calculated and exported to Prism software to calculate IC50 values using the “dose-response—inhibition, variable slope (four parameters)” equation. Ki values were calculated by the method of Waley ([31]). This method was previously used to calculate Ki values for boronic fast-on–fast-off BLIs.

[16] = molecular target: T10, P99 (Enterobacter cloacae, UniProt P05364); test: as above; assay type: biochemical; settings: P99, class C; substrate nitrocefin; 10 min preincubation at 37°C; read-out: IC50 (nM) of drug
Procedure: as §1

[17] = molecular target: T11, OXA-48 (Klebsiella pneumoniae, UniProt Q6XEC0); test: as above; assay type: biochemical, Enterobacteriaceae; settings: read-out: IC50 (nM) of drug
[18] = molecular target: T12, OXA-23 (Acinetobacter baumannii, UniProt Q9L4P2); test: as above; assay type: biochemical; settings: read-out: IC50 (nM) of drug
[19] = molecular target: T13, VIM-1 (Pseudomonas aeruginosa, UniProt A0A0F7KYQ8); test: as above; assay type: biochemical
[20] = molecular target: T14, IMP-1 (Serratia marcescens, UniProt P52699); test: IC50 of beta-lactamase inhibition (imipenem hydrolysis); assay type: biochemical
[21] = molecular target: T8, NDM-1; test: biochemical
[22] = molecular target: T1, SHV-12; test: biochemical; settings: derived from the ratio of koff and k2/K
[23] = molecular target: T9, CTX-M-15; test: koff of enzyme activity recovery, jump dilution method; assay type: biochemical; settings: derived from the ratio of koff and k2/K
Procedure: (§2) Enzyme at a 1 μM concentration in buffer A was mixed with BLI at an 8-fold-higher concentration than its stoichiometry ratio (determined in preliminary stoichiometry experiments). […].

[24] = molecular target: T3, KPC-2; test: as above; assay type: biochemical; settings: derived from the ratio of koff and k2/K
Procedure: as §2

[25] = molecular target: T4, KPC-3; test: as above; assay type: biochemical; settings: derived from the ratio of koff and k2/K
Procedure: as §2

[26] = molecular target: T12, OXA-23; test: as above; assay type: biochemical; settings: derived from the ratio of koff and k2/K
Procedure: as §2

[27] = molecular target: T15, OXA-24 (Acinetobacter baumannii, UniProt Q8RLA6); test: as above; assay type: biochemical; settings: derived from the ratio of koff and k2/K
Procedure: as §2

[28] = molecular target: T16, OXA-58 (Acinetobacter baumannii, UniProt Q2TR58); test: as above; assay type: biochemical; settings: derived from the ratio of koff and k2/K
Procedure: as §2

[29] = molecular target: T10, P99; test: as above; assay type: biochemical; settings: derived from the ratio of koff and k2/K
Procedure: as §2

[30] = molecular target: T7, SME-2; test: as above; assay type: biochemical; settings: derived from the ratio of koff and k2/K
Procedure: as §2

[31] = molecular target: T11, OXA-48; test: as above; assay type: biochemical, Enterobacteriaceae; settings: derived from the ratio of koff and k2/K
Procedure: as §2

[32] = molecular target: T5, BKC-1; test: Stoichiometry of beta-lactamase inhibition; assay type: biochemical; settings: minimal BLI/enzyme ratio reducing enzyme activity by at least 90%
Procedure: (§3) Purified enzyme at 1 μM concentration in buffer A was mixed with BLI at a BLI/enzyme ratio varying from 128 to 0.0625. […]. Stoichiometry of inhibition was determined as a minimal BLI/enzyme ratio reducing enzyme activity by at least 90%.

[33] = molecular target: T6, FRI-1; test: Stoichiometry of beta-lactamase inhibition; assay type: biochemical; settings: minimal BLI/enzyme ratio reducing enzyme activity by at least 90%
Procedure: as §3

[34] = molecular target: T4, KPC-3; test: Stoichiometry of beta-lactamase inhibition; assay type: biochemical; settings: minimal BLI/enzyme ratio reducing enzyme activity by at least 90%
Procedure: as §3

[35] = molecular target: T1, SHV-12; test: Stoichiometry of beta-lactamase inhibition; assay type: biochemical; settings: minimal BLI/enzyme ratio reducing enzyme activity by at least 90%
Procedure: as §3

[36] = molecular target: T7, SME-2; test: Stoichiometry of beta-lactamase inhibition; assay type: biochemical; settings: minimal BLI/enzyme ratio reducing enzyme activity by at least 90%
Procedure: as §3

[37] = molecular target: T2, TEM-43; test: Stoichiometry of beta-lactamase inhibition; assay type: biochemical; settings: minimal BLI/enzyme ratio reducing enzyme activity by at least 90%
Procedure: as §3

[38] = molecular target: T9, CTX-M-15; test: Stoichiometry of beta-lactamase inhibition; assay type: biochemical; settings: minimal BLI/enzyme ratio reducing enzyme activity by at least 90%
Procedure: (§4) […]. Stoichiometry of inhibition was determined as a minimal BLI/enzyme ratio reducing enzyme activity by at least 90%.

[39] = molecular target: T3, KPC-2; test: Stoichiometry of beta-lactamase inhibition; assay type: biochemical; settings: minimal BLI/enzyme ratio reducing enzyme activity by at least 90%
Procedure: as §4

[40] = molecular target: T12, OXA-23; test: Stoichiometry of beta-lactamase inhibition; assay type: biochemical; settings: minimal BLI/enzyme ratio reducing enzyme activity by at least 90%
Procedure: as §4

[41] = molecular target: T15, OXA-24; test: Stoichiometry of beta-lactamase inhibition; assay type: biochemical; settings: minimal BLI/enzyme ratio reducing enzyme activity by at least 90%
Procedure: as §4

[42] = molecular target: T11, OXA-48; test: Stoichiometry of beta-lactamase inhibition; assay type: biochemical; settings: minimal BLI/enzyme ratio reducing enzyme activity by at least 90%
Procedure: as §4

[43] = molecular target: T16, OXA-58; test: Stoichiometry of beta-lactamase inhibition; assay type: biochemical; settings: minimal BLI/enzyme ratio reducing enzyme activity by at least 90%
Procedure: as §4

[44] = molecular target: T10, P99; test: Stoichiometry of beta-lactamase inhibition; assay type: biochemical; settings: minimal BLI/enzyme ratio reducing enzyme activity by at least 90%
Procedure: as §4

[45] = molecular target: T14, IMP-1; test: Ki of competitive MBL inhibition (method of Waley); assay type: biochemical
Procedure: as §1

[46] = molecular target: T13, VIM-1; test: Ki of competitive MBL inhibition (method of Waley); assay type: biochemical
Procedure: as §1

[47] = tested on: strain producing cloned L1 from Stenotrophomonas maltophilia; settings: strain producing cloned L1 (B3 subclass MBL); cited from earlier work
[48] = Kd values for MBLs were based on Kis

(Serratia marcescens)
Km [1]: 26 µM | kcat [1]: 229 s⁻¹ | kcat/Km [1]: 8.9e+06 M⁻¹ s⁻¹

(Klebsiella pneumoniae)
Km [1]: 29 µM | kcat [1]: 406 s⁻¹ | kcat/Km [1]: 1.4e+07 M⁻¹ s⁻¹

O=C(Cc1cccs1)N[C@@H]1C(=O)N2C(C(=O)O)=C(/C=C/c3ccc([N+](=O)[O-])cc3[N+](=O)[O-])CS[C@H]12 [Nitrocefin, nitrocefin]
Km [2]: 5.5 µM | kcat ([2]; hydrolysis by SHV-12): 73 s⁻¹ | kcat [3]: 175 s⁻¹ | Km [4]: 49 µM | kcat ([4]; hydrolysis by KPC-2): 206 s⁻¹ | kcat [5]: 182 s⁻¹ | kcat [6]: 721 s⁻¹ | kcat [7]: 176 s⁻¹ | Km [8]: 59 µM | kcat ([8]; hydrolysis by SME-2): 352 s⁻¹ | Km [9]: 1.6 µM | kcat ([9]; hydrolysis by NDM-1): 27 s⁻¹ | kcat [10]: 325 s⁻¹ | kcat [11]: 18 s⁻¹

O=C(O)C[C@@H]1CC[C@H](NC(=O)Cc2cccs2)B(O)O1 [Vaborbactam, vaborbactam]
IC50 [12]: 110 ± 30 nM | IC50 [13]: 110 ± 40 nM | IC50 [14]: 56 ± 11 nM | IC50 [15]: 92 ± 13 nM | IC50 [16]: 88 ± 38 nM | IC50 [17]: 6900 nM | IC50 [18]: 120000 nM | IC50 ([19]; IC50 (nM) of drug): > 160000 nM | IC50 [20]: > 160000 nM | IC50 [21]: > 160000 nM

O=C(O)c1c(F)ccc2c1OB(O)[C@@H]1C[C@H]21 [QPX7728]
IC50 [12]: 2.9 ± 0.4 nM | IC50 [13]: 0.94 ± 0.2 nM | IC50 [14]: 1.9 ± 0.6 nM | IC50 [15]: 1.2 ± 0.1 nM | IC50 [16]: ~22 nM and 22 nM | IC50 [17]: 1 nM and 1.1 nM | IC50 [18]: 1 nM and 1.2 nM | IC50 ([19]; read-out: IC50 (nM) of drug): 14 ± 4 nM | IC50 [20]: 610 ± 70 nM | Kd [22]: 28 ± 4 nM | Kd [23]: 0.11 ± 0.02 nM | Kd [24]: 0.25 ± 0.03 nM | Kd [25]: 0.31 ± 0.06 nM | Kd [26]: 1.6 ± 0.2 nM | Kd [27]: 0.58 ± 0.1 nM | Kd [28]: 3.2 ± 0.3 nM | Kd [29]: 0.53 ± 0.06 nM | Kd [30]: 0.15 ± 0.02 nM | Kd [31]: 0.13 ± 0.01 nM | Stoichiometry [32]: 1 | Stoichiometry [33]: 1 | Stoichiometry [34]: 1 | Stoichiometry [35]: 1 | Stoichiometry [36]: 1 | Stoichiometry [37]: 1 | Stoichiometry [38]: 1 | Stoichiometry [39]: 1 | Stoichiometry [40]: 2 | Stoichiometry [41]: 1 | Stoichiometry [42]: 1 | Stoichiometry [43]: 1 | Stoichiometry [44]: 1 | Kd [45, 48]: 240 ± 30 nM | Ki ([45]; competitive, fast-on–fast-off): 240 ± 30 nM | Kd [46, 48]: 7.5 ± 2.1 nM | Ki ([46]; competitive, fast-on–fast-off): 7.5 ± 2.1 nM | ability to reduce MICs of meropenem and ceftazidime [47]: inability

(Pseudomonas aeruginosa PAO1)
Km [1]: 55 µM | kcat [1]: 133 s⁻¹ | kcat/Km [1]: 2.4e+06 M⁻¹ s⁻¹
